US8134015B2, “Compound inhibiting in vivo phosphorous transport and medicine containing the same” (Kyowa Hakko Kirin Co., Ltd., priority 2003, dated 2012)

Biological target: T1, rat NaPi-2b (Rattus norvegicus, UniProt Q9JJ09)
T1 construct: expressed in transfected cells; host or cells: Xenopus oocytes injected with cRNA
T1 sequence (Q9JJ09 1-695): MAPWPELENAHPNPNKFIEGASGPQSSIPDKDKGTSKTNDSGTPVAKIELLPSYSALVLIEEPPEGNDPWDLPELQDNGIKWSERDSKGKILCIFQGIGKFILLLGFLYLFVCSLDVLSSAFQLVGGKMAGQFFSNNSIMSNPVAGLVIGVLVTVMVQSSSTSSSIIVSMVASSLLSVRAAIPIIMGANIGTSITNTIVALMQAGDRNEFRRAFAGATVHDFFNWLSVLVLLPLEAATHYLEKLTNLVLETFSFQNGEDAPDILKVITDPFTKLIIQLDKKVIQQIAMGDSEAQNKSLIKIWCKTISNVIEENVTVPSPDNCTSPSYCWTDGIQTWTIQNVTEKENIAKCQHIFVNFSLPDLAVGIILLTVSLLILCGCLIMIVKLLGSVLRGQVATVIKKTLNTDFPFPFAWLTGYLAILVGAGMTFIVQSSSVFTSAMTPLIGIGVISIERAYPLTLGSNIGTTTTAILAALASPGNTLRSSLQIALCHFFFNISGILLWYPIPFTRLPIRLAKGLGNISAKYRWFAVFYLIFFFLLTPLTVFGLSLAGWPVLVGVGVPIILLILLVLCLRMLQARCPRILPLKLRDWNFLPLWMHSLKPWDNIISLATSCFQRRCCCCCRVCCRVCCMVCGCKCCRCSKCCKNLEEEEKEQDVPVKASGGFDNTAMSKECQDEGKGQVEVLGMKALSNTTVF
Test: Sodium-dependent phosphate uptake of Xenopus oocytes which expressed NaPi-2b (32P)
Format: cell-based
Conditions: for IC50: Xenopus oocytes expressing rat NaPi-2b, 32P radioactive phosphorus, read-out: IC50 (phosphate uptake inhibitory activity); for inhibition at 300 µM: phosphate uptake, oocytes expressing rat NaPi-2b, determined from inhibition curve
How it was run: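 Rat small-intestine NaPi-2b cRNA injected into Xenopus oocytes, expressed for 2 days. Sodium-dependent phosphate uptake measured with 32P; % inhibition at 300 and 100 μM taken from the same inhibition curve.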

SMILES	IC50	inhibition at 300 µM
CCN(CC)CCN(C)Cc1cccc(C(=O)Nc2sccc2C(=O)N/N=C/c2ccc(C)cc2)c1 [Compound 665, 3-{[(2-Diethylamino-ethyl)-methyl-amino]-methyl}-N-[3-(4-methyl-benzylidene-hydrazinocarbonyl)-thiophen-2-yl]-benzamide]	–	82.3%
Cc1cccc(/C=N/NC(=O)c2cc(I)ccc2NC(=O)c2cccc(CN3CCC(N4CCCCC4)CC3)c2)c1 [Compound 484, 3-[1,4′]Bipiperidinyl-1′-ylmethyl-N-[4-iodo-2-(3-methyl-benzylidene-hydrazinocarbonyl)-phenyl]-benzamide]	< 3000 nM	–
Cc1csc(NC(=O)c2cccc(CN3CCC(O)CC3)c2)c1C(=O)N/N=C/c1ccc(F)cc1 [Compound 595, N-[3-(4-Fluoro-benzylidene-hydrazinocarbonyl)-4-methyl-thiophen-2-yl]-3-(4-hydroxy-piperidin-1-ylmethyl)-benzamide]	3870 nM	–
CCN(CC)CCNCc1cccc(C(=O)Nc2scc(C)c2C(=O)N/N=C/c2ccc(OC)cc2)c1 [Compound 586, 3-[(2-Diethylamino-ethylamino)-methyl]-N-[3-(4-methoxy-benzylidene-hydrazinocarbonyl)-4-methyl-thiophen-2-yl]-benzamide]	< 3000 nM	–
O=C(Nc1ccc(Cl)cc1C(=O)N/N=C/c1ccc(F)cc1)c1cccc(CSCCS(=O)(=O)O)c1 [Compound 708, 2-{3-[4-Chloro-2-(4-fluoro-benzylidene-hydrazinocarbonyl)-phenylcarbamoyl]-benzylsulfanyl}-ethanesulfonic acid]	–	42%
O=C(Nc1ccc(Cl)cc1C(=O)N/N=C/c1ccc(Cl)c(C(F)(F)F)c1)c1cccc(CSCc2ccco2)c1 [Compound 700, N-[4-Chloro-2-(4-chloro-3-trifluoromethyl-benzylidene-hydrazinocarbonyl)-phenyl]-3-(furan-2-ylmethylsulfanylmethyl)-benzamide]	–	40.3%
Cc1ccc(/C=N/NC(=O)c2cc(I)ccc2NC(=O)c2cccc(CN3CCC(N4CCCCC4)CC3)c2)cc1 [Compound 485, 3-[1,4′]Bipiperidinyl-1′-ylmethyl-N-[4-iodo-2-(4-methyl-benzylidene-hydrazinocarbonyl)-phenyl]-benzamide]	< 3000 nM	–
Cc1ccc(/C=N/NC(=O)c2cc(Br)ccc2NC(=O)c2ccncc2)cc1C [Compound 170, N-[4-Bromo-2-(3,4-dimethyl-benzylidene-hydrazinocarbonyl)-phenyl]-isonicotinamide]	5340 nM	–
CCN(CC)CCN(C)Cc1cccc(-c2nc3sc4c(c3c(=O)n2/N=C/c2ccc(Cl)c(C(F)(F)F)c2)CCCC4)c1 [Compound 674, 3-[(4-Chloro-3-trifluoromethyl-benzylidene)-amino]-2-(3-{[(2-diethylamino-ethyl)-methyl-amino]-methyl}-phenyl)-5,6,7,8-tetrahydro-3H-benzo[4,5]thieno[2,3-d]pyrimidin-4-one]	–	85.1%
CCN(CC)CCN(C)Cc1cccc(C(=O)Nc2ccc(Cl)cc2C(=O)N/N=C/c2ccc(OC)cc2)c1 [Compound 386, N-[4-Chloro-2-(4-methoxy-benzylidene-hydrazinocarbonyl)-phenyl]-3-{[(2-diethylamino-ethyl)-methyl-amino]-methyl}-benzamide]	< 3000 nM	–
COc1ccc(C(=O)Nc2ccc(Br)cc2C(=O)N/N=C/c2cccn2C)cc1OC [Compound 201, N-[4-Bromo-2-(1-methyl-1H-pyrrol-2-ylmethylene-hydrazinocarbonyl)-phenyl]-3,4-dimethoxy-benzamide]	11100 nM	–
O=C(Nc1ccccc1C(=O)N/N=C/c1cccnc1)c1ccc(F)cc1 [Compound 113, 4-Fluoro-N-[2-(pyridin-3-ylmethylene-hydrazinocarbonyl)-phenyl]-benzamide]	17900 nM	–
Cc1ccc(/C=N/NC(=O)c2cc(Br)ccc2NC(=O)c2ccc(CN3CCC(CO)CC3)cc2)cc1 [Compound 333, N-[4-Bromo-2-(4-methyl-benzylidene-hydrazinocarbonyl)-phenyl]-4-(4-hydroxymethyl-piperidin-1-ylmethyl)-benzamide]	17200 nM	–
Cc1ccc(/C=N/NC(=O)c2scc(C)c2NC(=O)c2cccc(CN(CC(C)O)CC(C)O)c2)cc1 (stereo not shown) [Compound 540, 3-{[Bis-(2-hydroxy-propyl)-amino]-methyl}-N-[4-methyl-2-(4-methyl-benzylidene-hydrazinocarbonyl)-thiophen-3-yl]-benzamide]	–	38.4%
CCN(CC)Cc1cccc(C(=O)Nc2ccc(Cl)cc2C(=O)NOCc2ccccc2)c1 [Compound 1077]	–	40.2%

Next, values leading:

IC50	inhibition at 300 µM	SMILES
< 3000 nM	–	Cc1cccc(/C=N/NC(=O)c2cc(Br)ccc2NC(=O)c2ccc(CSc3ccncc3)cc2)c1 [Compound 257, N-[4-Bromo-2-(3-methyl-benzylidene-hydrazinocarbonyl)-phenyl]-4-(pyridin-4-ylsulfanylmethyl)-benzamide]
1820 nM	–	CCN(CCO)Cc1cccc(C(=O)Nc2ccc(Cl)cc2C(=O)N/N=C/c2cccc(OC)c2)c1 [Compound 428, N-[4-Chloro-2-(3-methoxy-benzylidene-hydrazinocarbonyl)-phenyl]-3-{[ethyl-(2-hydroxy-ethyl)-amino]-methyl}-benzamide]
2560 nM	–	Cc1ccc(/C=N/NC(=O)c2cc(Br)ccc2NC(=O)c2ccc(CN3CCC(O)CC3)cc2)cc1 [Compound 325, N-[4-Bromo-2-(4-methyl-benzylidene-hydrazinocarbonyl)-phenyl]-4-(4-hydroxy-piperidin-1-ylmethyl)-benzamide]
< 300 nM	–	COc1cccc(/C=N/NC(=O)c2cc(Cl)ccc2NC(=O)c2cccc(CN(C)CCO)c2)c1 [Compound 400, N-[4-Chloro-2-(3-methoxy-benzylidene-hydrazinocarbonyl)-phenyl]-3-{[(2-hydroxy-ethyl)-methyl-amino]-methyl}-benzamide]
< 1000 nM	–	Cc1cccc(/C=N/NC(=O)c2cc(Cl)ccc2NC(=O)c2ccccn2)c1 [Compound 361, Pyridin-2-carboxylic acid [4-chloro-2-(3-methyl-benzylidene-hydrazinocarbonyl)-phenyl]-amide]
1410 nM	–	COc1cc(/C=N/NC(=O)c2cc(N3CCCCC3)ccc2NC(=O)c2ccc(OC)c(OC)c2)ccc1O [Compound 938, N-[2-(4-Hydroxy-3-methoxy-benzylidene-hydrazinocarbonyl)-4-piperidin-1-yl-phenyl]-3,4-dimethoxy-benzamide]
2180 nM	–	Cc1cccc(/C=N/NC(=O)c2cc(Cl)ccc2NC(=O)c2cccc(CN(CCO)CCO)c2)c1 [Compound 404, 3-{[Bis-(2-hydroxy-ethyl)-amino]-methyl}-N-[4-chloro-2-(3-methyl-benzylidene-hydrazinocarbonyl)-phenyl]-benzamide]
1450 nM	–	CCN(CC)CCNCc1ccc(C(=O)Nc2ccc(Br)cc2C(=O)N/N=C/c2cccc(F)c2)cc1 [Compound 296, N-[4-Bromo-2-(3-fluoro-benzylidene-hydrazinocarbonyl)-phenyl]-4-[(2-diethylamino-ethylamino)-methyl]-benzamide]
2470 nM	–	Cc1ccc(/C=N/NC(=O)c2cc(Br)ccc2NC(=O)c2ccc(CN3CCN(CC(=O)N4CCOCC4)CC3)cc2)cc1C [Compound 305, N-[4-Bromo-2-(3,4-dimethyl-benzylidene-hydrazinocarbonyl)-phenyl]-4-[4-(2-morpholin-4-yl-2-oxo-ethyl)-piperazin-1-ylmethyl]-benzamide]
2550 nM	–	O=C(Nc1ccccc1C(=O)N/N=C/c1cccc(F)c1)c1cccc(OC(F)(F)F)c1 [Compound 120]
